For series [1], the target named is T1, D2S (Homo sapiens, UniProt P14416). As to the kind of experiment: Functional activity D2S. The series is classed as cell-based.
A short description of a further series: % Protein Binding. The series is classed as in vitro ADME.
Series [2] has as its target T2, 5HT2A (Homo sapiens, UniProt P28223). The series can be described thus: 5HT2A binding (Ki).
Another series deals with T3, D4.4 (Homo sapiens, UniProt P21917).
T3 sequence (P21917 1-419): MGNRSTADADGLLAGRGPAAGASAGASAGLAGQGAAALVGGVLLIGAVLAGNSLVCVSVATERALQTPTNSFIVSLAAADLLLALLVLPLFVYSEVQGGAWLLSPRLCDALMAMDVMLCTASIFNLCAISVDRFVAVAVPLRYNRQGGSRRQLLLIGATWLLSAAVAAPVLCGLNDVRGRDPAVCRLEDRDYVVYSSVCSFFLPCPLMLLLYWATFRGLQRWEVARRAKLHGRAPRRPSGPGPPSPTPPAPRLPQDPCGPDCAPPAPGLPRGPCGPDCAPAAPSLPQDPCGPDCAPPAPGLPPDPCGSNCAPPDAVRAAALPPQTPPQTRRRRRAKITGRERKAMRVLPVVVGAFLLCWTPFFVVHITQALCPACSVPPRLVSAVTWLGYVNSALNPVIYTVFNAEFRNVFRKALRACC
As to the kind of experiment: D4.4 binding (Ki).

The target of series [3] is T2, 5HT2A. As to the kind of experiment: Functional activity 5HT2A. The format is cell-based.
Series [4] has as its target T4, 5HT1A (Homo sapiens, UniProt P08908).
T4 sequence (P08908 1-422): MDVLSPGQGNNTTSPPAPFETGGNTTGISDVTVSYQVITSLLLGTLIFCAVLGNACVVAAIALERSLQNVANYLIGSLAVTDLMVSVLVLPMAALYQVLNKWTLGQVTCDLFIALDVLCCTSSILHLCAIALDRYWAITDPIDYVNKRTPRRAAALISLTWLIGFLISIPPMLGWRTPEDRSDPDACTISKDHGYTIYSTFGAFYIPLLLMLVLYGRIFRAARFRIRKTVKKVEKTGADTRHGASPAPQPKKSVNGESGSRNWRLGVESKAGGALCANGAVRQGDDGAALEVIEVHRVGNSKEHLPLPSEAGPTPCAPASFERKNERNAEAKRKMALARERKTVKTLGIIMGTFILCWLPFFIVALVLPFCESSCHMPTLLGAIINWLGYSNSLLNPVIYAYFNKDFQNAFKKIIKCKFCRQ
The series can be described thus: 5HT1A binding (Ki).

The next series concerns the target D3 (Homo sapiens, UniProt P35462). The series can be described thus: D3 binding (Ki).
In a further series the target is s 1 (Homo sapiens, UniProt Q99720). As to the kind of experiment: s 1 binding (Ki).
The nature of another series: AMES Test. The format is cell-based.
The test system of another series is IP3. As to the kind of experiment: IC50 (IP3). The series is classed as cell-based.
The target in another series is Na chan. The series can be described thus: Na channel binding (Ki).
The target of another series is D2L (Homo sapiens, UniProt P14416). As to the kind of experiment: Functional activity D2L. The format is cell-based.
Series [5] has as its target T1, D2S. The series can be described thus: D2S binding (Ki).
The target in series [6] is T4, 5HT1A. The series can be described thus: Functional activity 5HT1A. The format is cell-based.
In the next series the target is hERG (Homo sapiens, UniProt Q12809). The series can be described thus: hERG % inhibition at 1 uM. For orientation: hERG is a cardiac potassium channel; its block is linked to QT prolongation.
The next series deals with 5HT2B (Homo sapiens, UniProt P41595). The series can be described thus: Functional activity IC50 (5HT2B antagonist). The series is classed as cell-based.
The next series can be described thus: Rat pK. Conditions: in vivo; for bioavailability: read-out: Rat pK: % F.
The target in the next series is D2 (Homo sapiens, UniProt P14416). As to the kind of experiment: Functional activity D2 (agonist / antagonist). The series is classed as cell-based.
The nature of the next series: Mouse pK. Particulars: in vivo.
A further series in a line: HLM T1/2. Particulars: human, liver microsomes. On the technique in general: Liver microsomes are a subcellular fraction often used to study metabolism.
The target in a further series is D1 (Homo sapiens, UniProt P21728). The series can be described thus: D1 binding (Ki).
[7] abbreviates: iv, read-out: Rat pK: T1/2 (iv).
[8] abbreviates: po, read-out: Rat pK: T1/2 (po).

This is an account of results in patent US20110082157A1, “Piperidinylamino-Thieno [2,3-D] Pyrimidine Compounds” (priority 2004, published 2011).

Read-outs that look alike come from different tables or passages of the source.

D3, sequence (P35462 whole entry): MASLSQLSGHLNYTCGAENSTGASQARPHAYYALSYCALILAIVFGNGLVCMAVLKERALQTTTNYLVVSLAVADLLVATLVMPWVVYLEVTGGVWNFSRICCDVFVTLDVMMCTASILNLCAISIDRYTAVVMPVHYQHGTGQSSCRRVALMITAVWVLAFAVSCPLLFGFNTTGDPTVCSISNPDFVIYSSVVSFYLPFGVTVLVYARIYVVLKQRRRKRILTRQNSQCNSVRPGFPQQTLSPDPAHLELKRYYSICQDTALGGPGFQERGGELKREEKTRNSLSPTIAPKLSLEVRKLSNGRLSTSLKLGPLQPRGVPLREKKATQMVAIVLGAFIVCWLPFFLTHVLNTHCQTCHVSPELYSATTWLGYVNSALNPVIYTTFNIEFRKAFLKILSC
T2 sequence (P28223 whole entry, species assumed): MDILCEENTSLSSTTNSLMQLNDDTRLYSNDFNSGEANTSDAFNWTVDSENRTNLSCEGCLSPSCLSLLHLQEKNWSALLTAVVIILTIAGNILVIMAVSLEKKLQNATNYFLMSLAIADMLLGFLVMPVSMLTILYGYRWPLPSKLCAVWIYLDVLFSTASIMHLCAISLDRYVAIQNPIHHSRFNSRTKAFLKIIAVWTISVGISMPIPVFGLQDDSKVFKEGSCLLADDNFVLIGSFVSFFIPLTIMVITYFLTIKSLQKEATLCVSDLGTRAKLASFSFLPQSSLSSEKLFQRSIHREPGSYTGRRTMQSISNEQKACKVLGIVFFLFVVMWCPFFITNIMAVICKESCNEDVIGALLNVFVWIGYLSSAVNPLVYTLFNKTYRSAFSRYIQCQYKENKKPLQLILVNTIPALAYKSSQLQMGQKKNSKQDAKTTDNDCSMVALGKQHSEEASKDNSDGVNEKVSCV
T1 sequence (P14416 1-414 isoform P14416-2): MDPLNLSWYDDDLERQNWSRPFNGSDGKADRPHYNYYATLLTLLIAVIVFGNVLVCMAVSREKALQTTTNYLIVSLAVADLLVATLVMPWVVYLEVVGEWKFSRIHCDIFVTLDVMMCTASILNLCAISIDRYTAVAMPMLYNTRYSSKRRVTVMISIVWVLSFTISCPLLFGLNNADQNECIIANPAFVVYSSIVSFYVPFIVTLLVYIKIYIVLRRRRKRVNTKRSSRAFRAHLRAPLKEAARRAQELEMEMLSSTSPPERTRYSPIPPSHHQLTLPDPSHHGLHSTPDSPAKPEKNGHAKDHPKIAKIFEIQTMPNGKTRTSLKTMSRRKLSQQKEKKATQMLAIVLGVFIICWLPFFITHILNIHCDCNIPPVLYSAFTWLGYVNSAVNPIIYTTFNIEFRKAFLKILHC
5HT2B, sequence (P41595 whole entry, species assumed): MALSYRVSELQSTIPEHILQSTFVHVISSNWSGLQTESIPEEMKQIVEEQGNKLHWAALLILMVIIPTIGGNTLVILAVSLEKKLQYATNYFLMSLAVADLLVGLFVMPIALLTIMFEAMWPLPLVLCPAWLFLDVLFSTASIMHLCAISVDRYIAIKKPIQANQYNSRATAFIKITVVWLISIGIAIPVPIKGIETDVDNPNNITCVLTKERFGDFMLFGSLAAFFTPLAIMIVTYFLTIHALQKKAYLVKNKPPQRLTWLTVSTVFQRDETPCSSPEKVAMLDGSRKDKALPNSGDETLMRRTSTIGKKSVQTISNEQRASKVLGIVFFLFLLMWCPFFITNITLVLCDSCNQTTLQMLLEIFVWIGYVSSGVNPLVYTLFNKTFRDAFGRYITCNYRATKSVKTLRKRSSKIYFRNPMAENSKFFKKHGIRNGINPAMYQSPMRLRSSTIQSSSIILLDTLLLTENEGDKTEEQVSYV
hERG, sequence (Q12809 whole entry): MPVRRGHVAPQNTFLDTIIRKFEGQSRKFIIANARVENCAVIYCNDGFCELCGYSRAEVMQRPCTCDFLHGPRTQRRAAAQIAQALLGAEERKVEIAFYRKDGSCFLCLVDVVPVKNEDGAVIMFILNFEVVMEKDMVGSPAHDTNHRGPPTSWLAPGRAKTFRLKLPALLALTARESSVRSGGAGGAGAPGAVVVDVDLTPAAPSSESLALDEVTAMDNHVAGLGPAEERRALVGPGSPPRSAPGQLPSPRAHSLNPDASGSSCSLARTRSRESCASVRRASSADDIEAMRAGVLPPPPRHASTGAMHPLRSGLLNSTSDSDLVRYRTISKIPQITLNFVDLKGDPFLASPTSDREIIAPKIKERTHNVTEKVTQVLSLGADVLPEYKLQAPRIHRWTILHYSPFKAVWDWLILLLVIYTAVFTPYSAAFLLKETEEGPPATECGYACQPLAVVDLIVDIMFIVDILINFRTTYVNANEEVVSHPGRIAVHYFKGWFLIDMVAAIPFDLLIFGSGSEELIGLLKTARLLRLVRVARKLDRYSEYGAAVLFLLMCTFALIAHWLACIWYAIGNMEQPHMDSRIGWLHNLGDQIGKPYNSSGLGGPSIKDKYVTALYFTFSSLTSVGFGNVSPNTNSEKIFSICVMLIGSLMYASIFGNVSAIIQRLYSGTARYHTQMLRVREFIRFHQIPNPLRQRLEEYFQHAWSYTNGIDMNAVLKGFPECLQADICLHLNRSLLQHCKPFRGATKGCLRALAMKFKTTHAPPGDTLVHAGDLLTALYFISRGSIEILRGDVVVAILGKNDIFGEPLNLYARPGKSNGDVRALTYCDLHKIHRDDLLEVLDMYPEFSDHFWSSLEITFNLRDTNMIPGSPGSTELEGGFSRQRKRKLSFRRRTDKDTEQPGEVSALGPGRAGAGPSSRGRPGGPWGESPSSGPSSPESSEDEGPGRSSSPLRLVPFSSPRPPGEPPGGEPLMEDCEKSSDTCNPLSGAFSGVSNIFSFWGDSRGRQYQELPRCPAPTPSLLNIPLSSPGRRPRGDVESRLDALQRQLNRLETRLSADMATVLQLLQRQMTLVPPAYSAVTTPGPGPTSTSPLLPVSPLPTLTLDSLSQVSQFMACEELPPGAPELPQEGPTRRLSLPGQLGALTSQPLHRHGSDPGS
s 1, sequence (Q99720 whole entry): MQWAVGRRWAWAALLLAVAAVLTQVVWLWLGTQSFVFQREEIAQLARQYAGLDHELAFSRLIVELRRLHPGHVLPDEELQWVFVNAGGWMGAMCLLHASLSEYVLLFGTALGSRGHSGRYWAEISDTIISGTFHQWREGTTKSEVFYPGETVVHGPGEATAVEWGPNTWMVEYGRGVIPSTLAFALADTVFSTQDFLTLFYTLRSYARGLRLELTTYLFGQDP
D2, sequence (P14416 whole entry): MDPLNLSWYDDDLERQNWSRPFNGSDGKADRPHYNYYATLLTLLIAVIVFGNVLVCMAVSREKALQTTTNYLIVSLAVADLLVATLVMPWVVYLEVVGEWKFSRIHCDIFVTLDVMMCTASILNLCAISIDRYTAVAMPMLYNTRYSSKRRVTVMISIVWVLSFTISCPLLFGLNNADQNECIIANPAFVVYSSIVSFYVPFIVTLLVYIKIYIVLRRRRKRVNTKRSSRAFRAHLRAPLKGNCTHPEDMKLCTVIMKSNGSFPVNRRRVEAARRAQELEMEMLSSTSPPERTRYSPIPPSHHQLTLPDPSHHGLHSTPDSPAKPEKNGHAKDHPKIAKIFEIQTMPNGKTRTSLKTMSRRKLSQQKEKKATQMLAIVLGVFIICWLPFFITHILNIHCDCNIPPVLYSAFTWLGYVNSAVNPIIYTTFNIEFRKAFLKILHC
D2L, sequence (P14416 whole entry): as above
D1, sequence (P21728 whole entry): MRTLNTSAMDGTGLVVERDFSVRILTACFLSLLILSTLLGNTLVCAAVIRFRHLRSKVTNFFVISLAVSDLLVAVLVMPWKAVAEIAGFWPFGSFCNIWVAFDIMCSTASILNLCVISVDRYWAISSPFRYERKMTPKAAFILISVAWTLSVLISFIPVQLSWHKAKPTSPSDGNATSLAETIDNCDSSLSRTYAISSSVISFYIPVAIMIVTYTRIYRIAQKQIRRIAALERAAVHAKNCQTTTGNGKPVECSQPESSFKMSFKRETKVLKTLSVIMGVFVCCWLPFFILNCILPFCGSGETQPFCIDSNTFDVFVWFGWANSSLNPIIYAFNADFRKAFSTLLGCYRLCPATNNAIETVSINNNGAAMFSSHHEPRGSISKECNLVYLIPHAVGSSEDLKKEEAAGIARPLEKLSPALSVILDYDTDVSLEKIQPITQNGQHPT

Consider `Fc1cccc(CN2CCC(Nc3ncnc4sc(Cl)cc34)CC2)c1.O=C(O)/C=C\C(=O)O` [Example B42, N-(1-(3-fluorobenzyl)piperidin-4-yl)-6-chlorothieno[2,3-d]pyrimidin-4-amine, monomaleate], for which the IC50 – broadly, the concentration needed to halve the response being measured – at D2S [1] is 292 nM; against 5HT2A [3], 340 nM; in the series on IP3, 1.7 nM; against D2L, 162 nM; against 5HT2B it was 110 nM. In addition, the fraction unbound (commonly free concentration divided by total concentration) in “% Protein Binding” was determined as 0.017. Also, the Ki (as a rule, the equilibrium dissociation constant of an inhibitor or competing ligand from its target) was found to be 52 nM on 5HT2A [2]; 4.7 nM on D4.4; 17 nM at 5HT1A [4]; 26 nM on D3; 6.7 nM on s 1; 250 nM at Na chan. At D2S [5] (NA: Not Active), this compound registered a Ki of 170 nM. Besides, in “AMES Test”, the “AMES Test” value is “Negative”. Besides, the “Functional Activity IC50 (5HT1A)” value on 5HT1A [6] is “Not Active”. Also, the “hERG (% Inhibition at 1 uM)” value at hERG was determined as 50.1%. Further, the half-life in the series “Rat pK” (setting [7]) was found to be 24 min; in the series “Rat pK” (setting [8]) it was 72 min. Besides, the bioavailability in the series “Rat pK” (po) was determined as 22.4%.
With `Fc1cc(F)cc(CN2CCC(Nc3ncnc4sc(Cl)cc34)CC2)c1.O=C(O)/C=C\C(=O)O` [Example B34, N-(1-(3,5-difluorobenzyl)piperidin-4-yl)-6-chlorothieno[2,3-d]pyrimidin-4-amine, monomaleate], the IC50 against D2S [1] was 63.3 nM; in the series with IP3, 0.74 nM; against D2L it was 17.2 nM; at 5HT2B it was 680 nM. The fraction unbound in “% Protein Binding” was 0.01. Besides, the inhibitory constant (Ki) on 5HT2A [2] came to 260 nM; at D4.4, 3.4 nM; at 5HT1A [4], 35 nM; on D3, 140 nM; at D2S [5] (NA: Not Active) it was 66 nM. For the same compound, on 5HT2A [3], the “Functional Activity IC50 (5HT2A)” value is recorded as “Not Active”. Also, the “AMES Test” value in “AMES Test” is “Negative”. Also, on 5HT1A [6], the “Functional Activity IC50 (5HT1A)” value is given as “Not Active”. On hERG, the “hERG (% Inhibition at 1 uM)” value is recorded as 29.4%. Moreover, the half-life in “Rat pK” (setting [7]) turned out to be 24 min; in “Rat pK” (setting [8]), 66 min. In addition, the bioavailability in the series “Rat pK” (po) was determined as 29.1%.
`N#Cc1cccc(CN2CCC(Nc3ncnc4sc(Cl)cc34)CC2)c1` [Example B43, 3-((4-(6-chlorothieno [2,3-d]pyrimidin-4-ylamino)piperidin-1-yl)methyl) benzonitrile, monomaleate] had a fraction unbound in the series “% Protein Binding” of 0.018. In addition, the Ki on D4.4 was found to be 25 nM; on 5HT1A [4] it was 280 nM; at D3 it was 1300 nM; at s 1, 11 nM; on Na chan, 970 nM; at D2S [5], 1000 nM. The compound also registered a Ki at D1 of 1200 nM. Moreover, the “AMES Test” value in the series “AMES Test” was “Negative”. For the same compound, the IC50 was 1.48 nM in the series on IP3 and 17.5 nM against 5HT2B. Besides, the EC50 (commonly the concentration needed to bring the measured effect to its halfway point) on D2 (agonist) came out at 920 nM. The “IC50 (D2)” value at D2 (antagonist) is “No antagonist activity”. The bioavailability in “Mouse pK” (ip, read-out: Mouse pK: % F) is 87%; in “Rat pK” (po), 17.2%. The half-life in the series “Mouse pK” (ip, read-out: Mouse pK: T1/2 (ip)) stood at 30 min; in “Mouse pK” (iv, read-out: Mouse pK: T1/2 (iv)), 26 min; in the series “HLM T1/2” it was 22 min; in the series “Rat pK” (setting [7]), 44.4 min; in the series “Rat pK” (setting [8]), 91.8 min. Also, the “hERG (% Inhibition at 1 uM)” value on hERG stood at 47.3%.
